For one series, the target named is Mutant type EZH2(Y641F) (Homo sapiens (Human), UniProt Q15910, Y641F). The series can be described thus: AlphaLISA, mutant type PRC2 complex EZH2(Y641F). The note with it: read-out: Mutant type EZH2(Y641F) IC50 Nanomoles per Liter. It is filed as biochemical. (Bead proximity is the source of the signal in Alpha formats.)
Another series concerns the target Mutant type EZH2(A677G) (Homo sapiens (Human), UniProt Q15910, A677G). The series can be described thus: AlphaLISA, mutant type PRC2 complex EZH2(A677G). It is filed as biochemical. The note with it: read-out: Mutant type EZH2(A677G) IC59 Nanomoles per Liter.
A further series has as its target Mutant type EZH2(Y641N) (Homo sapiens (Human), UniProt Q15910, Y641N). The experiment in a line: AlphaLISA, mutant type PRC2 complex EZH2(Y641N). It is filed as biochemical. The note with it: read-out: Mutant type EZH2(Y641N) IC50 Nanomoles per Liter.
The test system of series [1] is human diffuse large cell lymphoma B lymphocytes (Pfeiffer cell). The series can be described thus: Pfeiffer cell proliferation, Calcein AM staining. It is filed as cell-based. The conditions noted are these: Homo sapiens, Pfeiffer; data of 14th day; read-out: Pfeiffer Proliferation IC50 Nanomoles per Liter.
Description: The diffuse large cell lymphoma B lymphocytes (Pfeiffer cells) were collected and counted when growing well.
Series [2] deals with human diffuse large B-cell lymphoma cells (Karpas 422 cell). The experiment in a line: Karpas 422 cell proliferation, Calcein AM staining. Format: cell-based. The conditions noted are these: Homo sapiens, KARPAS-422; data of 14th day; read-out: Karpas422 Proliferation IC50 Nanomoles per Liter.
The nature of series [3]: Pharmacokinetic experiment in rats. Format: in vivo, SD rats. The procedure:
A certain amount of compound was weighted and dissolved in 0.1% Tween under vortex and ultrasound, and 0.5% carboxymethyl cellulose sodium (CMC-NA) solution was added to form a uniform solution.

For another series, the target named is wild-type EZH2 (Homo sapiens (Human), UniProt Q15910). The experiment in a line: radiometric assay, activity to wild-type EZH2 of PRC2.
Setting [4] is: male, SD, rat, plasma, rats, Intravenous-Dose 4 mg/kg, read-out: Area Curve (AUC, ng/mL · h).
Where [5] appears, read: male, SD, rat, plasma; rats, Intravenous-Dose 4 mg/kg; read-out: Half life T1/2, h) (converted).
Setting [6] is: male, SD, rat, plasma, rats, Oral-Dose 20 mg/kg, read-out: Area Curve (AUC, ng/mL · h).
[7] abbreviates: male, SD, rat, plasma, rats, Oral-Dose 20 mg/kg, read-out: Blood Drug level (Cmax, ng/mL).
Setting [8] is: male, SD, rat, plasma, rats, oral 20 mg/kg vs intravenous 4 mg/kg, read-out: Bioavailability (P %).
Setting [9] is: read-out: Wild-type EZH2 IC50 Nanomoles per Liter.
The mark [10] stands for this setting: male, SD, rat, in vivo, iv, 4 mg/kg.
The mark [11] stands for this setting: male, SD, rat, in vivo, po, 20 mg/kg.

Where two headings read alike, the source gives them in different places.

Chain of Mutant type EZH2(Y641N) (Q15910 whole entry Y641N): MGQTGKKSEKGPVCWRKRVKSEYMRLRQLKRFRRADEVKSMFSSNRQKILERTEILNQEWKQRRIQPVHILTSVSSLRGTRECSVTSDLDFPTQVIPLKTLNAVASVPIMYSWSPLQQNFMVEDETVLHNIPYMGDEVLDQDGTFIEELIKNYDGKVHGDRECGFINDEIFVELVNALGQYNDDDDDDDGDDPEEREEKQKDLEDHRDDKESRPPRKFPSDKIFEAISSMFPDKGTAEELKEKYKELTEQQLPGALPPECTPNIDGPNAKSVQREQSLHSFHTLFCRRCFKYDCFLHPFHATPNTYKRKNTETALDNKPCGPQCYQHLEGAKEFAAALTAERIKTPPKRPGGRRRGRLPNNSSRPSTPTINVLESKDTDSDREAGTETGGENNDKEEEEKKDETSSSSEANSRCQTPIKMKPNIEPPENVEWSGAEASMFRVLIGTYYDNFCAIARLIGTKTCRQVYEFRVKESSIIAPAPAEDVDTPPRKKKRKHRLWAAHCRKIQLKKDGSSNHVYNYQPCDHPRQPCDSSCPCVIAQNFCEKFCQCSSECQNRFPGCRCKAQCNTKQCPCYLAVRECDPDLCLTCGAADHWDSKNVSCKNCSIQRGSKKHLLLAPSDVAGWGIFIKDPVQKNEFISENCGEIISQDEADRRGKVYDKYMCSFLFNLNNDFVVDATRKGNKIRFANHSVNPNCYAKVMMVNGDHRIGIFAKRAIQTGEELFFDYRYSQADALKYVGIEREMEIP
Chain of Mutant type EZH2(Y641N) (O75530 whole entry partner): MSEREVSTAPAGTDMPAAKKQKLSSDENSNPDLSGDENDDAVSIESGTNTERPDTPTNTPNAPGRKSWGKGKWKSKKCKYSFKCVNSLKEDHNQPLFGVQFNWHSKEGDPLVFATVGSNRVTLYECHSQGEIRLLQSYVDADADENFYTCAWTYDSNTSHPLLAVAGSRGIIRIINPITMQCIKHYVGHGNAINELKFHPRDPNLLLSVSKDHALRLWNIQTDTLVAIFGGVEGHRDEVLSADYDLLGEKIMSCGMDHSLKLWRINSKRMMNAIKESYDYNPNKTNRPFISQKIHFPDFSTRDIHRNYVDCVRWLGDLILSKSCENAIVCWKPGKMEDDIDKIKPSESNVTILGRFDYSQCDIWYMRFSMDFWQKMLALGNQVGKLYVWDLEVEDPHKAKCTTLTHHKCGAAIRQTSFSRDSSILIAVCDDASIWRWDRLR
Chain of Mutant type EZH2(Y641N) (Q15022 whole entry partner): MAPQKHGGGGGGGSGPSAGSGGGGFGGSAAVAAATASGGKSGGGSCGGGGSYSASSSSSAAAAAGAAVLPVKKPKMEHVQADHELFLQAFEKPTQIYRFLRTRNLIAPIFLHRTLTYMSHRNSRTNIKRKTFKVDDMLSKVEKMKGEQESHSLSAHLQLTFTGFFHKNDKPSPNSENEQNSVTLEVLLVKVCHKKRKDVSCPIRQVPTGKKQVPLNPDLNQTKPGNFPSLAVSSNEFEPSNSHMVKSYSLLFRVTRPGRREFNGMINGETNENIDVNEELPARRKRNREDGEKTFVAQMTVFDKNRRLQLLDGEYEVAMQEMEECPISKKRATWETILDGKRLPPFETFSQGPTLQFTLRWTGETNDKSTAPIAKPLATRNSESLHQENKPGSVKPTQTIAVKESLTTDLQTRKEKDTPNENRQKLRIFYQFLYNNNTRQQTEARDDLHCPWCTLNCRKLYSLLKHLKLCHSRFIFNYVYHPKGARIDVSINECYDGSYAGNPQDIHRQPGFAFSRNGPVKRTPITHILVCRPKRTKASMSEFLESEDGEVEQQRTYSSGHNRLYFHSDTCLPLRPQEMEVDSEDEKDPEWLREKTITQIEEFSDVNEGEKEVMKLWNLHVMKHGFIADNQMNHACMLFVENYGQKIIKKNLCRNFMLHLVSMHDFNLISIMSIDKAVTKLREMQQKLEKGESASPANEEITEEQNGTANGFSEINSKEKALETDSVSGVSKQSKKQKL
Chain of Mutant type EZH2(Y641N) (Q09028 whole entry partner): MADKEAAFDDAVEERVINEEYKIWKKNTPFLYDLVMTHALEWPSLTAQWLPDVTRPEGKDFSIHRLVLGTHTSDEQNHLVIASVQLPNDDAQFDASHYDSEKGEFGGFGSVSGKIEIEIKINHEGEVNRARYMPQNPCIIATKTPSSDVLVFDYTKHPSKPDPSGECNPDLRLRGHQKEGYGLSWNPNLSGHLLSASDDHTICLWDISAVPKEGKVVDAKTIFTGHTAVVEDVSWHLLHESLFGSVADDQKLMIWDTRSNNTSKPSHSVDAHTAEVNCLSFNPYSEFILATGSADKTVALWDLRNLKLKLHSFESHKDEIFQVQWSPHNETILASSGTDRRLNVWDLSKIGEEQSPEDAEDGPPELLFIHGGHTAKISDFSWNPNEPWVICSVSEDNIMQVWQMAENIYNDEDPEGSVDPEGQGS
Chain of Mutant type EZH2(Y641N) (Q6ZN18 whole entry partner): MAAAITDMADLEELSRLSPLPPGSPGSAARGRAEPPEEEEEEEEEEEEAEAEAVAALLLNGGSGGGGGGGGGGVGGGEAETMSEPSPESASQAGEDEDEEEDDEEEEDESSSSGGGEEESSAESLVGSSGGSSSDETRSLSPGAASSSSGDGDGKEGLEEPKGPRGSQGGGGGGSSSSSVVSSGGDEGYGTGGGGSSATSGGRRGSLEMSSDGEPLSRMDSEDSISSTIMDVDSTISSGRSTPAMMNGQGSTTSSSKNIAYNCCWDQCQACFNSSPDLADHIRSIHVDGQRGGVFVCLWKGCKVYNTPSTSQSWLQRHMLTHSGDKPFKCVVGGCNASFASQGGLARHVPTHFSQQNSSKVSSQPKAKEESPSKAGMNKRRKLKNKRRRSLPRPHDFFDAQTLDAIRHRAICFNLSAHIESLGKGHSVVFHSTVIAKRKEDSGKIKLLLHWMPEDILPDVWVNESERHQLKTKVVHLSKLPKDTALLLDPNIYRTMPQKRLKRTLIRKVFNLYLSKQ
Chain of Mutant type EZH2(A677G) (Q15910 whole entry A677G): as the sequence (Q15910 whole entry Y641N) above, with N641Y, A677G counted along it
Chain of Mutant type EZH2(A677G) (O75530 whole entry partner): as the sequence (O75530 whole entry partner) above
Chain of Mutant type EZH2(A677G) (Q15022 whole entry partner): as the sequence (Q15022 whole entry partner) above
Chain of Mutant type EZH2(A677G) (Q09028 whole entry partner): as the sequence (Q09028 whole entry partner) above
Chain of Mutant type EZH2(A677G) (Q6ZN18 whole entry partner): as the sequence (Q6ZN18 whole entry partner) above
Chain of Mutant type EZH2(Y641F) (Q15910 whole entry Y641F): as the sequence (Q15910 whole entry Y641N) above, with N641F counted along it
Chain of Mutant type EZH2(Y641F) (O75530 whole entry partner): as the sequence (O75530 whole entry partner) above
Chain of Mutant type EZH2(Y641F) (Q15022 whole entry partner): as the sequence (Q15022 whole entry partner) above
Chain of Mutant type EZH2(Y641F) (Q09028 whole entry partner): as the sequence (Q09028 whole entry partner) above
Chain of Mutant type EZH2(Y641F) (Q6ZN18 whole entry partner): as the sequence (Q6ZN18 whole entry partner) above
Chain of wild-type EZH2 (Q15910 whole entry): as the sequence (Q15910 whole entry Y641N) above, with N641Y counted along it
Chain of wild-type EZH2 (O75530 whole entry partner): as the sequence (O75530 whole entry partner) above
Chain of wild-type EZH2 (Q15022 whole entry partner): as the sequence (Q15022 whole entry partner) above
Protocol for wild-type EZH2: 25 μL of reaction solution was transferred to a scintillation plate, which was incubated at room temperature for 1 hour (h) and washed with deionized water and 0.1% Tween 20 for three times. A PerkinElmer liquid scintillation/luminescence counter was used to read the value, and GraphPad Prism 5 was used to calculate the median inhibitory concentration (IC50) of the compounds.

Take `CCN(c1cc(-c2ccc3c(c2)NCC32CCOCC2)cc(C(=O)NCc2c(C)cc(C)[nH]c2=O)c1C)C1CCNCC1` [Example 6, N-((4,6-dimethyl-2-oxo-1,2-dihydropyridin-3-yl)methyl)-3-(ethyl(piperidin-4-yl)amino)-2-methyl-5-(2′,3′,5′,6′-tetrahydrospiro[dihydroindole-3,4′-pyran]-6-yl)benzamide]: the IC50 is 200 pM at Mutant type EZH2(Y641F); 200 pM at Mutant type EZH2(A677G); 70 pM on Mutant type EZH2(Y641N); 1140 pM in series [1]; 1940 pM in series [2]. In addition, the AUC stood at 936 ng·h/mL in series [3] (setting [4]) and 1190 ng·h/mL in series [3] (setting [6]). Also, the half-life in series [3] (setting [5]) is 1.26 h. For the same compound, in series [3] (setting [7]), the Cmax was 494 ng/mL. For the same compound, the bioavailability in series [3] (setting [8]) stood at 25.5%.
For `CCN(c1cc(-c2cc3c(cc2F)C2(CCOCC2)CC3)cc(C(=O)NCc2c(OC)cc(C)[nH]c2=O)c1C)C1CCOCC1` [Example 17, 3-(ethyl(tetrahydro-2H-pyran-4-yl)amino)-5-(6-fluoro-2,2′,3,3′,5′,6′-hexahydrospiro[indene-1,4′-pyran]-5-yl)-N-((4-methoxy-6-methyl-2-carbonyl-1,2-dihydropyridin-3-yl)methyl)-2-methylbenzamide], the IC50 at Mutant type EZH2(Y641N) was 300 pM; in series [1] it was 2780 pM; in series [2] it was 3090 pM; at wild-type EZH2 (setting [9]), 1100 pM.
For the compound `CCN(c1cc(-c2cc3c(cc2F)CCC32CCOCC2)cc(C(=O)NCc2c(C)cc(C)[nH]c2=O)c1C)C1CCOCC1` [Example 24, N-((4,6-dimethyl-2-carbonyl-1,2-dihydropyridin-3-yl)methyl)-3-(ethyl(tetrahydro-2H-pyran-4-yl)amino)-5-(5-fluoro-2,2′,3,3′,5′,6′-hexahydrospiro[indene-1,4′-pyran]-6-yl)-2-methylbenzamide], the IC50 on Mutant type EZH2(Y641F) is 560 pM; at Mutant type EZH2(A677G), 410 pM; at Mutant type EZH2(Y641N), 230 pM; in series [1] it was 100 pM; in series [2] it was 410 pM. The AUC came to 943 ng·h/mL in series [3] (setting [4]) and 1350 ng·h/mL in series [3] (setting [6]). For the same compound, the half-life in series [3] (setting [5]) was 1.08 h. The Cmax in series [3] (setting [7]) was determined as 479 ng/mL. The bioavailability in series [3] (setting [8]) came to 28.7%.
As to `CCN(c1cc(-c2ccc3c(c2)C=CC32CCN(C(C)C)CC2)cc(C(=O)NCc2c(OC)cc(C)[nH]c2=O)c1C)C1CCOCC1` [Example 37, 3-(ethyl(tetrahydro-2H-pyran-4-yl)amino)-5-(1′-isopropylspiro[indene-1,4′-piperidine]-5-yl)-N-((4-methoxy-6-methyl-2-carbonyl-1,2-dihydropyridin-3-yl)methyl)-2-methylbenzamide], the IC50 is 540 pM at Mutant type EZH2(Y641F); 230 pM at Mutant type EZH2(Y641N); 870 pM in series [1]; 950 pM in series [2]; 600 pM on wild-type EZH2 (setting [9]). Also, the AUC in series [3] (setting [10]) was 903 ng·h/mL; in series [3] (setting [11]), 1540 ng·h/mL. Moreover, the half-life in series [3] (setting [10]) was 1.25 h. Further, the Cmax in series [3] (setting [11]) amounted to 444 ng/mL. Also, the bioavailability in series [3] (setting [11]) was 34.1%.
Turning to `CCN(c1cc(-c2ccc3c(c2)C(=O)C2(CCOCC2)C3)cc(C(=O)NCc2c(C)cc(C)[nH]c2=O)c1C)C1CCOCC1` [Example 78, N-((4,6-dimethyl-2-oxo-1,2-dihydropyridin-3-yl)methyl)-3-(ethyl(tetrahydro-2H-pyran-4-yl)amino)-2-methyl-5-(1-oxo-1,2′,3,3′,5′,6′-hexahydrospiro[indene-2,4′-pyran]-6-yl)benzamide], the IC50 at Mutant type EZH2(Y641N) is 230 pM; in series [1], 1890 pM; in series [2], 2210 pM; on wild-type EZH2 (setting [9]) it was 810 pM.
Regarding `CCN(c1cc(-c2ccc3c(c2)NC(=O)C32CCOCC2)cc(C(=O)NCc2c(C)cc(C)[nH]c2=O)c1C)C1CCN(C)CC1` [Example 81, N-((4,6-dimethyl-2-oxo-1,2-dihydropyridin-3-yl)methyl)-3-(ethyl(1-methylpiperidin-4-yl)amino)-2-methyl-5-(2-oxo-2′,3′,5′,6′-tetrahydrospiro[dihydroindole-3,4′-pyran]-6-yl)benzamide], the IC50 on Mutant type EZH2(Y641F) is 890 pM; on Mutant type EZH2(A677G), 630 pM; at Mutant type EZH2(Y641N), 480 pM; in series [1], 4730 pM; in series [2] it was 3670 pM; at wild-type EZH2 (setting [9]) it was 1370 pM.
Regarding `CCN(c1cc(-c2ccc3c(c2)NC(=O)C32CCOCC2)cc(C(=O)NCc2c(C)cc(C)[nH]c2=O)c1C)C1CCN(C2COC2)CC1` [Example 82, N-((4,6-dimethyl-2-oxo-1,2-dihydropyridin-3-yl)methyl)-2-methyl-3-(ethyl(1-(oxetan-3-yl)piperidin-4-yl)amino)-5-(2-oxo-2′,3′,5′,6′-tetrahydrospiro[dihydroindole-3,4′-pyran]-6-yl)benzamide], the IC50 at Mutant type EZH2(Y641F) was 520 pM; on Mutant type EZH2(Y641N) it was 160 pM; in series [1], 2850 pM; in series [2], 3620 pM; on wild-type EZH2 (setting [9]), 830 pM.
Consider `CCN(c1cc(-c2ccc3c(c2)NC(=O)C32CCN(C(C)=O)CC2)cc(C(=O)NCc2c(C)cc(C)[nH]c2=O)c1C)C1CCOCC1` [Example 88], for which the IC50 was 610 pM on Mutant type EZH2(Y641F); 510 pM on Mutant type EZH2(A677G); 420 pM on Mutant type EZH2(Y641N); 1560 pM in series [1]; 2760 pM in series [2]; 960 pM at wild-type EZH2.
In the case of `CCN(c1cc(-c2ccc3c(c2)NC(=O)C32CCOCC2)cc(C(=O)NCc2c(C)cc(C)[nH]c2=O)c1C)C1CCS(=O)(=O)CC1` [Example 96, N-((4,6-Dimethyl-2-oxo-1,2-dihydropyridin-3-yl)methyl)-3-((ethyl)(1,1-dioxotetrahydro-2H-thiapyran-4-yl)amino)-2-methyl-5-(2-oxo-2′,3′,5′,6′-tetrahydrospiro[dihydroindole-3,4′-pyran]-6-yl)benzamide], the IC50 on Mutant type EZH2(Y641F) is 880 pM; at Mutant type EZH2(A677G), 570 pM; in series [1], 3630 pM; in series [2], 4570 pM; at wild-type EZH2 (setting [9]) it was 1240 pM. Besides, the AUC came to 990 ng·h/mL in series [3] (setting [4]) and 1540 ng·h/mL in series [3] (setting [6]). Besides, the half-life in series [3] (setting [5]) is 1.64 h. Besides, the Cmax in series [3] (setting [7]) was 436 ng/mL. In series [3] (setting [8]), the bioavailability came out at 31.1%.
As for `CCN(c1cc(-c2ccc3c(c2)NC(=O)C32CCOCC2)cc(C(=O)NCc2c(C)cc(C)[nH]c2=O)c1C)C1CCC(N(C)C)CC1` (stereo not drawn) [Example 98, N-((4,6-Dimethyl-2-oxo-1,2-dihydropyridin-3-yl)methyl)-3-((ethyl)(4-dimethylamino-cyclohexyl)amino)-2-methyl-5-(2-oxo-2′,3′,5′,6′-tetrahydrospiro[dihydroindole-3,4′-pyran]-6-yl)benzamide], the IC50 is 360 pM at Mutant type EZH2(Y641F); 210 pM at Mutant type EZH2(Y641N); 1060 pM in series [1]; 2230 pM in series [2]; 670 pM on wild-type EZH2 (setting [9]).
For `CCN(c1cc(-c2ccc3c(c2)NC(=O)C32CCOCC2)cc(C(=O)NCc2c(C)cc(C)[nH]c2=O)c1C)C1CC(C)OC(C)C1` (stereo not drawn) [Example 104, N-((4,6-Dimethyl-2-oxo-1,2-dihydropyridin-3-yl)methyl)-3-(ethyl(2,6-dimethyltetrahydro-2H-pyran-4-yl)amino)-2-methyl-5-(2-oxo-2′,3′,5′,6′-tetrahydrospiro[dihydroindole-3,4′-pyran]-6-yl)benzamide], the IC50 is 310 pM on Mutant type EZH2(Y641F); 270 pM on Mutant type EZH2(A677G); 190 pM on Mutant type EZH2(Y641N); 1730 pM in series [1]; 1820 pM in series [2].
`CCN(c1cc(-c2ccc3c(c2)CCC32CCOCC2)cc(C(=O)NCc2c(OC)cc(C)[nH]c2=O)c1C)C1CCOCC1` [Example 113, 3-(Ethyl(tetrahydro-2H-pyran-4-yl)amino)-5-(2,2′,3,3′,5′,6′-hexahydrospiro[indene-1,4′-pyran]-5-yl)-N-((4-methoxy-6-methyl-2-oxo-1,2-dihydropyridin-3-yl)methyl)-2-methylbenzamide]: the IC50 at Mutant type EZH2(Y641F) is 540 pM; on Mutant type EZH2(A677G), 380 pM; on Mutant type EZH2(Y641N) it was 270 pM; in series [1], 1670 pM; in series [2], 2500 pM.
For `CCN(c1cc(-c2ccc3c(c2)NC(=O)C32CCOCC2)cc(C(=O)NCc2c(OC)cc(C)[nH]c2=O)c1C)C1CCC(N(C)C2COC2)CC1` (stereo not drawn) [Example 122, 3-(Ethyl(4-(methyl(oxetan-3-yl)amino)cyclohexyl)amino)-N-((4-methoxy-6-methyl-2-oxo-1,2-dihydropyridin-3-yl)methyl)-2-methyl-5-(2-oxo-2′,3′,5′,6′-tetrahydrospiro[dihydroindole-3,4′-pyran]-6-yl)benzamide], the IC50 at Mutant type EZH2(Y641N) was 210 pM; in series [1], 2910 pM; in series [2], 2480 pM; on wild-type EZH2 (setting [9]), 870 pM.

One may read the bioavailability as dose-corrected exposure relative to a reference, in per cent.
